Measurements reported in PubChem BioAssay AID1963985 (Molecular Pharmacology Branch, DTP, NCI, 2024).

Test system: 252836-082-R-J2-PDC tumor spheroids, viability
Assay: Anticancer human tumor 252836-082-R-J2-PDC patient-derived head and neck squamous cell carcinoma cell line growth inhibition [PI3K]
Settings: spheroids with HUVEC and MSC; for viability, T/C: stronger effect = lower value
From the text: Combinatorial screen of targeted agents with the PI3K inhibitors inavolisib, alpelisib, duvelisib, and copanlisib in multi-cell type tumor spheroids
A high-throughput screen of multi-cell type tumor spheroids was designed to identify active combinations of targeted small molecules and PI3K pathway inhibitors. Complex spheroids include a stromal component modeled by human endothelial cells (HUVEC) and fibroblasts modeled by human mesenchymal stem cells (MSCs). The concentration ranges selected for each drug and investigational agent were based upon clinically achievable concentrations if the clinical Cmax of the agent was known.
Compounds. The drugs and investigational agents: inavolisib (NSC800729), alpelisib (NSC765974), duvelisib (NSC772469), copanlisib (NSC816437), ipatasertib (NSC767898), afuresertib (NSC778305), talazoparib (NSC767125), sapanisertib (NSC764658), selumetinib (NSC741078), tovorafenib (DAY101, NSC766906), vemurafenib (NSC761431), ravoxertinib (NSC781343), sotorasib (NSC818433), MRTX1133 (NSC 836407), abemaciclib (NSC 768073), palbociclib (NSC758247), venetoclax (NSC 766270), SY5609 (NSC837396), enzalutamide (NSC755605), and darolutamide (NSC825331), were obtained from the National Cancer Institute (NCI) Developmental Therapeutics Program Chemical Repository. The FDA-approved anticancer drug set is available from the NCI Developmental Therapeutics Program. […] The stock solutions were prepared in dimethyl sulfoxide (DMSO, Sigma-Aldrich, St. Louis, MO, cat. D2650) at 800-fold the tested concentration and stored at -70 degrees C prior to their use. All drugs and investigational agents were tested over a range starting from a high concentration at or near the clinical Cmax and decreasing in half-log increments. If the clinical Cmax for an agent had not been determined, the highest concentration tested was 10 microM.
Cell Culture. All cells were maintained in an incubator at 37 degrees C and 5% CO2 with 95% humidity. The PDC lines were cultured according to standard operating procedures established by the NCI PDMR (https://pdmr.cancer.gov/sops/default.htm). All PDCs were thawed and cultured in Matrigel-coated flasks prepared with a working solution of 1X Ham's F-12 nutrient mix, without supplementation (Invitrogen, Waltham, MA, cat. 11765054), 100 U/mL penicillin-streptomycin (Invitrogen, cat. 15140122), and 2.5% Matrigel (Corning Inc., Corning, NY, cat. 354248) for the first three passages. The 354836-022-R-J1-PDC, 475296-252-R-J1-PDC, and 997726-040-R-J2-PDC lines were cultured in 6A media, which includes advanced DMEM/F-12 (Thermo Fisher Scientific, cat. 12634028), 10 mM HEPES (Thermo Fisher Scientific, cat. 15630080), 1X GlutaMAX supplement (Thermo Fisher Scientific, cat. 35050061), 0.1 mg/mL primocin (InvivoGen, San Diego, CA, cat. ant-pm-2), 10% defined fetal bovine serum, heat inactivated (HyClone Laboratories Inc., Logan, UT, cat. SH30070.03HI), 50% L-WRN conditioned media (ATCC, cat. CRL-3276), 1.25 mM N-Acetyl-L-cysteine (Sigma-Aldrich, cat. A9165), 10 mM nicotinamide (Sigma-Aldrich, cat. N0636), 1X B-27 supplement (Thermo Fisher Scientific, cat. 17504044), 1X N-2 supplement (Thermo Fisher Scientific, cat. 17502048), and 10 microM Y-27632 dihydrochloride (Tocris Bioscience, Bristol, United Kingdom, cat. 1254). The 624824-186-R-J2-PDC line was cultured in 6C/Colon 1B media, which includes all 6A media components plus 50 ng/mL human EGF recombinant protein (Thermo Fisher Scientific, cat. PHG0311). […]
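Further: spheroids exposed to agents for seven days before readout.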
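Wherever viability, T/C is given: percent of vehicle DMSO control viability so 100% = untreated growth.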

CCN1CCN(Cc2ccc(Nc3ncc(F)c(-c4cc(F)c5nc(C)n(C(C)C)c5c4)n3)nc2)CC1 + CC(Nc1ncnc2nc[nH]c12)c1cc2cccc(Cl)c2c(=O)n1-c1ccccc1
IC50 (curve of first compound, second compound 0.0316 µM): > 1 µM
IC50 (curve of first compound, second compound 0.1 µM): > 1 µM
IC50 (curve of first compound, second compound 0.316 µM): > 1 µM
IC50 (curve of first compound, second compound 1 µM): > 1 µM
IC50 (curve of first compound, second compound 3.16 µM): > 1 µM
IC50 (curve of first compound, second compound 10 µM): > 1 µM
viability, T/C (second compound 0.0316 µM, first compound 0.00316 µM): 98.7%
viability, T/C (second compound 0.0316 µM, first compound 0.01 µM): 94.4%
viability, T/C (second compound 0.0316 µM, first compound 0.0316 µM): 96.9%
viability, T/C (second compound 0.0316 µM, first compound 0.1 µM): 99%
viability, T/C (second compound 0.0316 µM, first compound 0.316 µM): 89.8%
viability, T/C (second compound 0.0316 µM, first compound 1 µM): 84.6%
viability, T/C (second compound 0.1 µM, first compound 0.00316 µM): 99.2%
viability, T/C (second compound 0.1 µM, first compound 0.01 µM): 93.1%
viability, T/C (second compound 0.1 µM, first compound 0.0316 µM): 103%
viability, T/C (second compound 0.1 µM, first compound 0.1 µM): 108%
viability, T/C (second compound 0.1 µM, first compound 0.316 µM): 95%
viability, T/C (second compound 0.1 µM, first compound 1 µM): 99.6%
viability, T/C (second compound 0.316 µM, first compound 0.00316 µM): 103%
viability, T/C (second compound 0.316 µM, first compound 0.01 µM): 94.3%
viability, T/C (second compound 0.316 µM, first compound 0.0316 µM): 95.7%
viability, T/C (second compound 0.316 µM, first compound 0.1 µM): 96.3%
viability, T/C (second compound 0.316 µM, first compound 0.316 µM): 96.6%
viability, T/C (second compound 0.316 µM, first compound 1 µM): 96.2%
viability, T/C (second compound 1 µM, first compound 0.00316 µM): 92.8%
viability, T/C (second compound 1 µM, first compound 0.01 µM): 93.6%
viability, T/C (second compound 1 µM, first compound 0.0316 µM): 91.9%
viability, T/C (second compound 1 µM, first compound 0.1 µM): 90.6%
viability, T/C (second compound 1 µM, first compound 0.316 µM): 89.2%
viability, T/C (second compound 1 µM, first compound 1 µM): 91.6%
viability, T/C (second compound 3.16 µM, first compound 0.00316 µM): 80%
viability, T/C (second compound 3.16 µM, first compound 0.01 µM): 69.8%
viability, T/C (second compound 3.16 µM, first compound 0.0316 µM): 75.4%
viability, T/C (second compound 3.16 µM, first compound 0.1 µM): 79%
viability, T/C (second compound 3.16 µM, first compound 0.316 µM): 78.9%
viability, T/C (second compound 3.16 µM, first compound 1 µM): 75%
viability, T/C (second compound 10 µM, first compound 0.00316 µM): 56%
viability, T/C (second compound 10 µM, first compound 0.01 µM): 62.8%
viability, T/C (second compound 10 µM, first compound 0.0316 µM): 65%
viability, T/C (second compound 10 µM, first compound 0.1 µM): 67.4%
viability, T/C (second compound 10 µM, first compound 0.316 µM): 69.8%
viability, T/C (second compound 10 µM, first compound 1 µM): 53.6%

CNC(=O)c1ccc(N2C(=S)N(c3ccc(C#N)c(C(F)(F)F)c3)C(=O)C2(C)C)cc1F
viability, T/C (compound 0.1 µM): 92.5% [middle of 4 runs]
viability, T/C (compound 0.316 µM): 105% [middle of 4 runs]
viability, T/C (compound 1 µM): 96.4% [middle of 4 runs]
viability, T/C (compound 3.16 µM): 94.9% [middle of 4 runs]
viability, T/C (compound 10 µM): 94.5% [middle of 4 runs]
IC50 (curve of compound): > 10 µM
